Measurements published in patent US20250134790A1, “ANTIMICROBIAL COMPOSITIONS” (Firmenich SA, priority 2021, published 2025).
Read-outs that look alike come from different tables or passages of the source.

System: Escherichia coli ATCC 10536
Test: Robotic bacteria contact time (BCT) test of perfume ingredients in surfactant bases (EN-1276 based)
Type: cell-based
Settings: contact time 45 seconds; for log reduction at 1 % / log reduction at 0.5 %: Escherichia coli, ATCC10536, 45 s; for log reduction at 1 % / Log reduction: surfactant base B, perfume ingredient 1% wt; for log reduction at 0.5 %: surfactant base A, perfume ingredient 0.5 % wt
Experimental: a. Preparation of Test Samples
Test samples were prepared by mixing perfume ingredients with the surfactant bases and vigorously stirred for 24 hrs. Samples with transparent appearance were selected for antimicrobial testing.
b. Measurement of Antimicrobial Efficacy of Fragrance Materials in Surfactant Systems
Preparation of screening plate and dilution plate: Aliquots (270 μl) of compositions were dispensed into the wells of a 96-well microtiter plate (MTP) along two columns (B1-H1, and B7-H7), and 270 μl of MilliQ water was added to well A1 and A7 as the control samples. This MTP was labelled as the “Screening plate”. In another MTP, labelled as the “Dilution plate”, 270 μL of Dey-Engley (D/E) neutralizing solution was added to column 1 and column 7. 270 μl of tryptone diluent solution was added to columns 2-6 and columns 8-12 of the Dilution MTP by a Hamilton robotic liquid handling station.
BCT test & neutralization & dilution: Bacterial stock (30 μl) was then added to columns 1 of the ‘Screening plate’ and mixed by a Hamilton robotic liquid handling station. After a contact time of 45 seconds, 30 μl of the mixtures in column 1 were transferred into the corresponding wells of column 1 of the ‘Dilution plate’. After neutralizing for 5 minutes in the D/E neutralizing solution, 30 μl of the neutralized mixtures were transferred from column 1 to column 2 of the Dilution MTP and mixed, followed by transferring 30μl of the mixtures from column 2 into column 3. This process was repeated serially diluting the bacteria suspensions across the plate to column 6. Bacterial stock (30 μl) was then added to columns 7 of the ‘Screening plate’ and mixed by a Hamilton robotic liquid handling station. After a contact time of 45 seconds, 30 μl of the mixtures in column 7 were transferred into the corresponding wells of column 7 of the ‘Dilution plate’. After neutralizing for 5 minutes in the D/E neutralizing solution, 30 μl of the mixtures were transferred from column 7 to column 8 of the Dilution MTP and mixed, followed by transferring further 30μl mixtures from column 8 into column 9. This process was repeated serially diluting the bacteria suspensions across the plate to column 12.
Plating: 30 μl volumes from each well in the Dilution MTP were transferred onto four Tryptone Soya Agar (TSA) plates. The TSA plates were allowed to stand for about two hours so that the 30 μl inocula spots could dry and the plates were then inverted and incubated overnight at 37° C. for 24 hours. After incubation, colonies were counted.
Calculating log reduction: Select the dilutions with colony counts, and calculate the viable cell counts (CFU/mL) of mixture in ‘Screening plate’, and log reduction against the control MilliQ sample was calculated.

[1] = no SCS (/), read-out: Log reduction
[2] = sodium cumene sulfonate (SCS) 3.00 % wt, read-out: Log reduction
[3] = sodium salicylate 3.00, read-out: Log reduction
[4] = sodium cumene sulfonate (SCS) 3.00 % wt

Row | Molecule | log reduction at 1 % [1] | log reduction at 1 % [2] | log reduction at 1 % [3] | Log reduction (sodium salicylate 3.00) | Log reduction (no SCS (/)) | Log reduction [4] | other results
1 | CC(=O)OCCC1CCCCC1 [2-cyclohexylethyl acetate] | 0 | > 5 | > 5 |  |  |  | 
2 | CC(=CC=O)CCC(C)=C(C)C [3,6,7-trimethyl-2,6-octadienal] | 3.3 | > 5 |  | Insoluble |  |  | 
3 | C=CC(C)(O)CCCC(C)C (centres unmarked) [3,7-dimethyl-1-octen-3-ol] | -0.1 | > 5 | > 5 |  |  |  | 
4 | CC(C)=CCCC(C)CCO (centres unmarked) [3,7-dimethyl-6-octen-1-ol] |  |  |  | Insoluble | Insoluble | Insoluble | log reduction at 0.5 % (read-out: Log reduction): 2.8
5 | CC(C)=CCCC(C)CC#N (centres unmarked) [3,7-dimethyl-6-octenenitrile] | 0.1 | > 5 | > 5 |  |  |  | 
6 | CCCC=C1OC(=O)c2ccccc21 [3-butylidene-1-benzo[C] furanone] |  |  |  | Insoluble |  |  | log reduction at 1 % (no SCS (/)): 0.2; log reduction at 1 % [4]: > 5
7 | CCCCCCCC1CCC(=O)O1 (centres unmarked) [5-heptyldihydro-2(3H)-furanone] |  |  |  |  |  |  | log reduction at 0.5 %: 1.3; log reduction at 1 % (no SCS (/)): -0.2; log reduction at 1 % [4]: 4.9; log reduction at 1 % (sodium salicylate 3.00): > 5
8 | C/C=C\C(C)(O)CCC=C(C)C (centres unmarked) [(2Z)-4,8-dimethyl-2,7-nonadien-4-ol] | -0.1 | > 5 | > 5 |  |  |  | 
9 | CCCCCCCC=O [Octanal, octanal] |  |  |  | Insoluble | Insoluble | Insoluble | 
10 | cyclopropylmethyl (3Z)-3-hexenoate OR cyclopropylmethyl (3E)-3-hexenoate |  |  |  | >5 | 0.1 | >5 | 
